Read-outs that look alike come from different tables or passages of the source.
Assays:
HEp2 cells = experiment: cell viability of uninfected HEp2 cells (XTT); conditions: Example 8
[1] = tested on: influenza A/Puerto Rico/8/34 (H1N1); format: in vivo, BALB/c mice
[2] = tested on: Measles virus (strain Edmonston); experiment: microbe, parasite or virus in culture; format: cell-based; conditions: Measles morbillivirus, HeLa
[3] = tested on: mice challenged with lipopolysaccharide (LPS); experiment: LPS induced lung neutrophilia model, BALF cell counts 4 h post LPS (Example 1)
in vitro [4] = conditions: human
[5] = tested on: human respiratory syncytial virus (strain RSVA2); conditions: Example 8
[6] = tested on: influenza virus (strain A/PR/8/34); experiment: inhibition of virus-induced CPE, influenza virus in MDCK cells; format: cell-based; conditions: unidentified influenza virus, PR/8, MDCK, read-out: maximum inhibition of the influenza mediated CPE
in vitro [7] = conditions: dog
MRC-5 cells = conditions: for cytotoxic effect on the viability of the cell control: Example 6
[8] = tested on: human rhinovirus strain HRV16 strain 11757; experiment: inhibition of virus-induced CPE, human rhinovirus in H1-HeLa cells; format: cell-based; conditions: Human rhinovirus sp., 4 hour pretreatment, MOI 0.0005, Lefamulin as acetate
Protocol: (§1) Cell viability determination as well as EC50 and TC50 calculations were performed as described in Examples 6 and 8.

[9] = cell viability of uninfected Huh7 cells; conditions: human
[10] = tested on: mice challenged with lipopolysaccharide (LPS); experiment: LPS induced lung neutrophilia model, BALF cell counts (Example 2); conditions: 4 h post LPS
[11] = tested on: alpha coronavirus 229E (HCoV-229E); experiment: inhibition of virus-induced CPE, CoV229E in MRC-5 cells (XTT); format: cell-based; conditions: for EC50: Human coronavirus 229E, MOI 0.001, read-out: EC50
Protocol: The antiviral compound Remdesivir served as positive control.
Lefamulin (as acetate) was evaluated using different treatment conditions of 4 h, 1 h or 0 h incubation prior to virus addition and addition 1 h after infection For this particular set of experiments, coronavirus was diluted 1:200 in assay medium and added at 100 μL/well to achieve approximately 90% cell killing in the untreated virus control wells (MOI of 0.001).

[12] = tested on: Dengue virus (strain DENV2New Guinea); experiment: inhibition of virus-induced CPE, Dengue virus in Huh7 cells; format: cell-based; conditions: Huh-7, 4 h pre-incubation, MOI 0.001, Lefamulin as acetate
Protocol: The Dengue virus strain DENV2New Guinea was obtained from ATCC (VR-1584) and was grown in Rhesus monkey kidney cells for the production of stock virus pools.
as §1

[13] = cell viability of uninfected HeLa cells; conditions: human
[14] = tested on: TNF-α, IL-6, IL-1β, GM-CSF, CXCL1, CXCL2, CCL2, MMP9 in lung homogenate; experiment: LPS induced lung neutrophilia model, marker concentrations in lung homogenate (Example 2); conditions: for GM-CSF in lung homogenate: all doses tested (10, 30, 100 mg/kg SC); for LPS-induced CCL2 increase in the lung homogenate: all investigated doses (10, 30, 100 mg/kg SC), Valnemulin particularly at 10 and 30 mg/kg
[15] = tested on: Zika virus (strain ZIKVPRVABC59); experiment: inhibition of virus-induced CPE, Zika virus in Huh7 cells; format: cell-based; conditions: Huh-7, 4 hour pretreatment, MOI 0.001, Lefamulin as acetate
Protocol: The Zika virus strain PRVABC59 obtained from ATCC (catalog VR-1843) […] was grown in Rhesus monkey kidney cells for the production of stock virus pools.
as §1

[16] = tested on: human respiratory syncytial virus (strain RSVA2); experiment: inhibition of virus-induced CPE, RSVA2 in HEp2 cells (XTT); conditions: human respiratory syncytial virus
[17] = tested on: lipopolysaccharide (LPS)-induced ALI; conditions: cited from earlier work
[18] = tested on: influenza A virus, porcine reproductive and respiratory syndrome virus (PRRSV) type 1 and 2; conditions: WO 2009/106839; compared to Tiamulin 0.1-10 μg/mL; cited from earlier work
[19] = high dose: 105 mg/kg/day SC in three injections until day 3, then 70 mg/kg twice daily
[20] = high dose, Day 6, vs vehicle treated control
[21] = Lefamulin 35, 70 and 140 mg/kg SC half an hour prior to IN LPS, vs LPS challenge (p<0.05)
[22] = 10, 30, or 100 mg/kg SC pre-treatment
[23] = 10, 30, or 100 mg/kg SC pre-treatment, 4 h post LPS
[24] = lower doses of 10 and 30 mg/kg SC
[25] = same doses (10, 30, 100 mg/kg SC)

With `C=C[C@]1(C)C[C@@H](OC(=O)CS[C@@H]2CC[C@@H](N)C[C@H]2O)[C@]2(C)C(C)CC[C@]3(CCC(=O)[C@H]32)[C@@H](C)[C@@H]1O` (stereo partly drawn) [Lefamulin, 14-O-{[(1R, 2R, 4R)-4-amino-2-hydroxy-cyclohexylsulfanyl]-acetyl}-mutilin] the “cytotoxic effect on the viability of the cell control” value (from here on “cytotoxic effect on the viability”) (HEp2 cells; 10 μM and 50 μM) was “no cytotoxic effect”, the “cytotoxic effect on the viability” value (HEp2 cells; 100 μM) was “cytotoxic effect” and the “B cells (BALF)” value ([1]; Day 6) was “reduction was only significant at the highest dose”. The “infiltration of CD4 cells in the lung” value ([1]; Day 6, both doses tested) was “decreased”, the “infiltration of CD8 cells in the lung” value ([1]; Day 6, both doses tested) was “decreased” and the “infiltration of NK cells in the lung” value ([1]; Day 6, both doses tested) was “decreased”. The “neutrophils infiltration (BALF)” value ([1]; Day 6, both doses tested) was “significantly decreased”, the “total immune cell infiltration in the lung (BALF flow cytometry)” value ([1]; Day 6, both doses tested, p<0.05) was “significantly decreased” and the “inflammatory monocyte infiltration in the lung” value ([1]; Day 6, higher dose) was “significantly reduced”. The “lung viral titres (TCID50 on MDCK cells)” value ([1]; Lefamulin at both doses, Oseltamivir positive control, Day 3 and Day 6, vs vehicle treated control) was “reduced”, the bodyweight ([1]; at the investigated doses (low and high dose SC)) was “did not have a significant effect” and the “clinical scores compared to vehicle” value [1, 19] was “increase”. For the same molecule, the “survival compared to vehicle” value [1, 19] was “decrease”, the “alveolar inflammation (histopathology)” value [1, 20] was “significant reduction” and the “bronchial degeneration (histopathology)” value [1, 20] was “significant reduction”. The overall histopathology score [1, 20] was “significant reduction”, the “macroscopically evaluated lung consolidation” value ([1]; low dose: 35 mg/kg SC twice daily, Day 6) was “significant improvement” and the “survival until day 6” value ([1]; lower dose: 35 mg/kg SC twice daily, Day -1 to Day 6) was 90%. The EC50 [2] was 0.89 µM, the “neutrophil cell count in BALF” value [3, 21] was “statistically significant reduction” and the “total cell count in BALF” value [3, 21] was “statistically significant reduction”. For the same molecule, the “cell influx (BALF)” value ([3]; highest dose of 140 mg/kg SC) was “Almost complete impairment”, the CC50 (in vitro [4]) was 24.1 µM and the “reduction of viral CPE” value ([5]; 10 μM) was 92.17%. For the same molecule, the “reduction of viral CPE” value ([5]; 50 μM) was 100%, the inhibition at 5 µM [6] was 18.4% and the CC50 (in vitro [7]) was 23.8 µM. For the same molecule, the “cytotoxic effect on the viability” value (MRC-5 cells; 10 μM) was “no cytotoxic effect”, the “cytotoxic effect on the viability” value (MRC-5 cells; 50 μM) was “cytotoxic effect” and the CC50 (MRC-5 cells; human, 6 days) was greater than 50 µM. For the same molecule, the cytotoxicity (MDCK cells; 50 μM) was “cytotoxicity was observed”, the “concentrations cytotoxic to MDCK cells” value (MDCK cells; Example 15) was “greater than 23 μM” and the EC50 [8] was 9.34 µM. The CC50 at 6 days ([9]; TC50, Example 12 (Dengue assay)) was 23.3 µM, the CC50 at 6 days ([9]; TC50, Example 13 (Zika assay)) was 23.4 µM and the “total cell counts in BALF, significance of change” value ([10]; 100 mg/kg SC, p<0.05) was “statistically significant”. The “total cell counts in BALF” value ([10]; 10, 30, or 100 mg/kg SC 30 min before LPS) was “reduced dose-dependently”, the “lymphocyte cell counts in BALF” value ([10]; 10, 30 and 100 mg/kg SC) was “not significantly affected” and the “macrophage cell counts in BALF” value ([10]; 10, 30 and 100 mg/kg SC) was “not significantly affected”. The “neutrophil cells in BALF” value ([10]; 10, 30 and 100 mg/kg SC) was “dose-dependent and significant reduction”, the “reduction of viral CPE” value ([11]; 10 µM) was 91.82% and the “reduction of viral CPE” value ([11]; 1 h, 50 µM) was 86.83%. For the same molecule, the EC50 ([11]; MRC5, 1 h, Example 7, 1 h post-infection) was 15.1 µM, the EC50 ([11]; MRC5, Example 6, MRC-5 cells, 4 h incubation prior to virus, 6 days post-infection, Lefamulin as acetate, Tiamulin as fumarate) was 3.87 µM and the EC50 ([11]; MRC5, Example 7, 0 h pretreatment) was 3.08 µM. The EC50 ([11]; MRC5, Example 7, 1 h pretreatment) was 2.16 µM, the EC50 ([11]; MRC5, Example 7, 4 h pretreatment) was 2.18 µM and the EC50 [12] was 6.79 µM. For the same molecule, the CC50 at 6 days [13] was 72.7 µM, the “MMP9 concentrations in lung homogenate” value ([14]; 10 mg/kg SC) was “did not alter” and the “reduction of MMP9 levels in lung homogenate” value (“reduction of MMP9 levels” for short) ([14]; 30 mg/kg SC) was 26%. The “reduction of MMP9 levels” value ([14]; 100 mg/kg SC) was 53%, the “reduction of IL-1β level in lung homogenate” value ([14]; 100 mg/kg SC pre-treatment) was 24% and the “CXCL1 level in lung homogenate” value [14, 22] was “significantly reduced”. The “CXCL2 level in lung homogenate” value [14, 22] was “significantly reduced”, the “reduction of IL-6 level in lung homogenate” value [14, 23] was no less than 50% and the “reduction of TNF-α level in lung homogenate” value [14, 23] was no less than 50%. For the same molecule, the “GM-CSF in lung homogenate” value [14] was “almost completely inhibited”, the “LPS-induced CCL2 increase in the lung homogenate” value [14] was “completely inhibited” and the EC50 [15] was 2.78 µM. The EC50 ([16]; HEp-2, Example 8, HEp2 cells, 4 h incubation prior to virus, MOI 0.001, 6 days post-infection, Lefamulin as acetate, Tiamulin as fumarate) was 5.34 µM, the EC50 ([16]; HEp-2, Example 9, MOI 0.0004) was 2.34 µM and the EC50 ([16]; HEp-2, Example 9, MOI 0.0008) was 28.7 µM. The EC50 ([16]; HEp-2, Example 9, MOI 0.001) was 32.3 µM and the EC50 ([16]; HEp-2, Example 9, MOI 0.003) was greater than 63.2 µM.

For `C=C[C@]1(C)C[C@@H](OC(=O)CSC(C)(C)CNC(=O)[C@H](N)C(C)C)[C@]2(C)[C@H](C)CC[C@]3(CCC(=O)[C@H]32)[C@@H](C)[C@@H]1O` [Valnemulin, reference compound], the “concentration of pro-inflammatory cytokines TNF-α, IL-6 and IL-1ß in bronchoalveolar lavage fluid” value ([17]; in vivo) is listed as “attenuate”, the “pulmonary wet-to-dry (W/D) ratio in the lung” value ([17]; pre-administration) is listed as “significantly reduced” and the “lymphocyte cell counts in BALF” value ([10]; 10, 30 and 100 mg/kg SC) is listed as “not significantly affected”. The “macrophage cell counts in BALF” value ([10]; 10, 30 and 100 mg/kg SC) was “not significantly affected”, the antiviral activity [18] was “did not exhibit antiviral activity” and the “reduction of MMP9 levels” value ([14]; 100 mg/kg SC) was 50%. The “GM-CSF in lung homogenate” value [14] was “showed a reduction of GM-CSF levels, but was less active than Lefamulin”, the “LPS-induced CCL2 increase in the lung homogenate” value [14] was “less active” and the “effect on CXCL1 compared to Lefamulin” value [14, 24] was “less effect”. For the same molecule, the “effect on CXCL2 compared to Lefamulin” value [14, 24] was “less effect”, the “IL-6 level in lung homogenate, compared with Lefamulin” value [14, 25] was “less active” and the “TNF-α level in lung homogenate, compared with Lefamulin” value [14, 25] was “less active”.
